Test results from ChEMBL document CHEMBL1201862, “PubChem BioAssay data set” (2004).
Active and inactive are the calls of the source.

How the values were obtained:
H9c2 = assay: cells; format: functional, cell-based; settings: Rattus norvegicus, H9c2, Myocardium;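 also: confirmatory concentration-response retest of ultra-high-throughput screening hits for modulation of myocardial damage; cell death induced by hydrogen peroxide oxidative stress; compound pretreatment for 60 min then peroxide exposure for 2 h; potency is for protecting the cells against peroxide damage rather than for killing them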
[1] = molecular target: T1, Calpain-2 catalytic subunit (Sus scrofa, UniProt P43367); assay: pig calpain II inhibitor potency, dose response, biochemical, fluorogenic peptide substrate (AID 1420); format: functional
T1 sequence (P43367 whole entry): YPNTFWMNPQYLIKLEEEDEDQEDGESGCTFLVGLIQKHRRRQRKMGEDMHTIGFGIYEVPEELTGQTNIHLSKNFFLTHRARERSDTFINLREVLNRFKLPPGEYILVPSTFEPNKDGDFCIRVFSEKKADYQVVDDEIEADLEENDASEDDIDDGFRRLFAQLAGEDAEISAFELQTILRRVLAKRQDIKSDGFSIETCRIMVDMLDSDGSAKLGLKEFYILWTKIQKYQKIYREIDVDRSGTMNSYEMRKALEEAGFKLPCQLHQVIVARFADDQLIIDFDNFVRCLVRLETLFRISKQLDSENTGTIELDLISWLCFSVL

[2] = molecular target: Luciferin 4-monooxygenase (Photinus pyralis, UniProt P08659); assay: firefly luciferase enzyme inhibitors, dose response, biochemical, luminescence (AID 1891)
[3] = Luminescence Cell-Based Dose Confirmation HTS to Identify Inhibitors of Platelet Dense Granule Release. [Related pubchem assays: 1663 (Primary HTS), 1678 (Summary of Project)]; format: functional
Cytochrome P450 2D6 = Cytochrome P450 2D6 (Homo sapiens, UniProt P10635);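 also: CYP2D6 member of a cytochrome P450 panel assay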
Cytochrome P450 1A2 = molecular target: T2, Cytochrome P450 1A2 (Homo sapiens, UniProt P05177);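 also: PubChem cytochrome P450 panel assay, CYP1A2 panel member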
T2 sequence (P05177 whole entry): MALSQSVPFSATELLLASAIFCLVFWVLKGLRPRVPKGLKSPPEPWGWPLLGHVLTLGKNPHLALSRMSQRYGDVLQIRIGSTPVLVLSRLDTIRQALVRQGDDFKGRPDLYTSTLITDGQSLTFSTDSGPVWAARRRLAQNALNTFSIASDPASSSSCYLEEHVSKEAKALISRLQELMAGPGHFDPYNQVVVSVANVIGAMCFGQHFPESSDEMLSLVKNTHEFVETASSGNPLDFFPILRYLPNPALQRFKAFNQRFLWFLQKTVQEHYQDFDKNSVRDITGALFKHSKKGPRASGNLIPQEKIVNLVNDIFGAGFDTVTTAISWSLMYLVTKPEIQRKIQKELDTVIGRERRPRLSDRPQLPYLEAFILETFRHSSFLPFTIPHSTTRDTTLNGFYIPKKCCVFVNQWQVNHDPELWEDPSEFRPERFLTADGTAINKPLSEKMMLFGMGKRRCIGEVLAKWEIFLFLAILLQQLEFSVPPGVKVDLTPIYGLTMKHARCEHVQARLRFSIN

Cytochrome P450 2C9 = Cytochrome P450 2C9 (Homo sapiens, UniProt P11712)
[4] = P. falciparum Dd2 growth inhibitors, dose response, SYBR Green, cherry-picked samples (AID 1159567); format: functional, cell-based
[5] = microbe, parasite or virus in culture; format: functional; settings: Mycobacterium tuberculosis
[6] = Luminescence Cell-Based Dose Retest to Confirm Inhibitors of Cancer Stem Cells. [Related pubchem assays (depositor defined):AID2717, AID2721]; format: functional; settings: Homo sapiens
[7] = inhibitors of firefly luciferase expression or activity, dose response, H4 neuroglioma cells, luminescence (AID 1990); format: functional, cell-based
[8] = Luminescence Cell-Based Dose Response HTS to Identify Inhibitors of 5'UTR Stem-Loop Driven Prion Protein mRNA Translation in H4 Neuroglioblastoma Cells. [Related pubchem assays: 1827 (Project Summary), 1813 (Primary HTS)]; format: functional
[9] = inhibitors of SNCA 5'UTR-driven reporter translation, confirmation, H4 neuroglioma cells, luminescence (AID 1988); format: functional, cell-based
[10] = tested on: Streptococcus sp. 'group A'; assay: growth inhibition of control SK(-) GAS strain, dose response, counter-screen for streptokinase expression inhibitor project, luminescence, kanamycin, BacTiterGlo, confirmation (AID 1900); format: functional, organism-based
Streptococcus = assay: Group A Streptococcus viability loss, dose response, counter-screen for streptokinase expression inhibitor project, luminescence, BacTiterGlo (AID 1915); format: functional, organism-based;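 also: potency for reduction of bacterial viability or growth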
[11] = molecular target: Heat shock protein HSP 90-alpha (Homo sapiens, UniProt P07900); format: functional, organism-based
[12] = molecular target: T3, Ubiquitin-conjugating enzyme E2 N (Homo sapiens, UniProt P61088); format: functional;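 also: Dose-response confirmation in a TR-FRET assay detecting UBC13-driven polyubiquitin chain formation, inhibition measured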
T3 sequence (P61088 whole entry): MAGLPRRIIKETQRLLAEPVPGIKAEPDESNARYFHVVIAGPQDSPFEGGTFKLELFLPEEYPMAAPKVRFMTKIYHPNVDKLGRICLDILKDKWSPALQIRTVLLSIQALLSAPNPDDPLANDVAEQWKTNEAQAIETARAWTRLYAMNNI

[13] = molecular target: T4, Heat shock factor protein 1 (Mus musculus, UniProt P38532); assay: HSF1 potentiators in luciferase reporter cells, confirmation, cell-based, NIH3T3, luminescence, dose retest (AID 435004); format: functional;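 also: stress induced by proteasome inhibitor MG132 added 30 min after compound; luciferase reporter driven by HSF1 response element in NIH3T3 cells; actives raise luminescence as potentiators of the MG132 stress response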
T4 sequence (P38532 whole entry): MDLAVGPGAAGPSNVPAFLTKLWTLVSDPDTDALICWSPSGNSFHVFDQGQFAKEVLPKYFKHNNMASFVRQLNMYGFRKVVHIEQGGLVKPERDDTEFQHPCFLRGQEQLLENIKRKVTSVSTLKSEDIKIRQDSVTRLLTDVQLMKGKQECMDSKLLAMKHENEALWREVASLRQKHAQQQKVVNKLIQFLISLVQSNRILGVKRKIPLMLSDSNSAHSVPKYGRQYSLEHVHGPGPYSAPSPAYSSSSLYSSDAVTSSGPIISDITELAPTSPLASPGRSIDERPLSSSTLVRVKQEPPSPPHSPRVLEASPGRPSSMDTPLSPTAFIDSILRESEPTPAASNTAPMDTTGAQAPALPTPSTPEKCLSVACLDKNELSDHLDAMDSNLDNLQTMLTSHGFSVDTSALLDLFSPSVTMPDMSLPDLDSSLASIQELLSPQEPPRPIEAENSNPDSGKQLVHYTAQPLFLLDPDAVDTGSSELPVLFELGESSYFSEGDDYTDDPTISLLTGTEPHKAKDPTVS

Fatty acid synthase = Fatty acid synthase (Homo sapiens, UniProt P49327); assay: FAS thioesterase domain inhibitors, dose response, biochemical, kinetic fluorescence intensity (AID 624326); format: functional;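 also: rate of fluorescence rise from hydrolysis of a fluorogenic O-methyl fluorescein ester substrate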
Cytochrome P450 2C19 = Cytochrome P450 2C19 (Homo sapiens, UniProt P33261); assay: Cytochrome panel assay with activity outcomes. Panel member name: p450-cyp2c19 Compounds with AC50 equal or less than 10 uM are considered active; format: functional; settings: read-out: AC50
Cytochrome P450 3A4 = Cytochrome P450 3A4 (Homo sapiens, UniProt P08684);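 also: CYP3A4 tested as one member of a cytochrome P450 panel screen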
Cytochrome P450 3A4, sequence (P08684 whole entry): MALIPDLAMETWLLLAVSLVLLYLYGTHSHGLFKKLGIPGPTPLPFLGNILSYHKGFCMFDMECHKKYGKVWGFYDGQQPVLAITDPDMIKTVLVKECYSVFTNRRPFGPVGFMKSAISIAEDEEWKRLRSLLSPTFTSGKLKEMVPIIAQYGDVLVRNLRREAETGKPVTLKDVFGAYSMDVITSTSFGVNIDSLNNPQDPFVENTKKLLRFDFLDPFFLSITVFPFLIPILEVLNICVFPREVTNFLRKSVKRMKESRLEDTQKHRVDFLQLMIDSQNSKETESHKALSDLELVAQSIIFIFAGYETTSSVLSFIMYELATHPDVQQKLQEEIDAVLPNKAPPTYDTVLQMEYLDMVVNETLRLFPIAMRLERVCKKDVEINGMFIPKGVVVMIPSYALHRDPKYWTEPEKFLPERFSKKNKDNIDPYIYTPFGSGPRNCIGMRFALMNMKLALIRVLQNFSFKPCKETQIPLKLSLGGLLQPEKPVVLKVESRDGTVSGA

Luciferin 4-monooxygenase, sequence (P08659 whole entry): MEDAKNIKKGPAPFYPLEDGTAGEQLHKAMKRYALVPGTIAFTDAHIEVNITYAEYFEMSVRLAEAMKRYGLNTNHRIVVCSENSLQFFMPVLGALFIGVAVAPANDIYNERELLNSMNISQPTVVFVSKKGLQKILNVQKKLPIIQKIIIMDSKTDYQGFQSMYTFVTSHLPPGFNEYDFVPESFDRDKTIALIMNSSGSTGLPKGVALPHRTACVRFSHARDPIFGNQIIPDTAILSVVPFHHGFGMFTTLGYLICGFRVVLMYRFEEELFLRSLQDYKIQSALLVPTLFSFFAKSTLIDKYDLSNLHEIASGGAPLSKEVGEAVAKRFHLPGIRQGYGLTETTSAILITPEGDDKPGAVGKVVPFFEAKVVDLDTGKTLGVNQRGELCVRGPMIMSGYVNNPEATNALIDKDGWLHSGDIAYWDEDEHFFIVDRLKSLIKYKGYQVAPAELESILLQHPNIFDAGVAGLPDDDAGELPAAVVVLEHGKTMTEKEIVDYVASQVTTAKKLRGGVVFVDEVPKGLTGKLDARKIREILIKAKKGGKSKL
Cytochrome P450 2D6, sequence (P10635 whole entry): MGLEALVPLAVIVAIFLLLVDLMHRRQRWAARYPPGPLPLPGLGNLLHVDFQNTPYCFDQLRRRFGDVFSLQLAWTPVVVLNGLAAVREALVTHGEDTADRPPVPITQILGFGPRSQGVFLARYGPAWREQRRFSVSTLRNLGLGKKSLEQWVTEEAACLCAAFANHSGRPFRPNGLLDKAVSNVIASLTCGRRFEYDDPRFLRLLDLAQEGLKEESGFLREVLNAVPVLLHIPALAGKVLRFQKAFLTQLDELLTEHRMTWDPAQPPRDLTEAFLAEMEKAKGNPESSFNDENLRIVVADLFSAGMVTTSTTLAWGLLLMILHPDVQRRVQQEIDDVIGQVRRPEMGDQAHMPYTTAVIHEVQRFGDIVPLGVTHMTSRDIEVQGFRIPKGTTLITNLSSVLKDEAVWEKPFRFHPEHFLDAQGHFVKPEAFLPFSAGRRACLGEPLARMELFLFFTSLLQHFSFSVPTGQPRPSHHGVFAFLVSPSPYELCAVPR
Cytochrome P450 2C9, sequence (P11712 whole entry): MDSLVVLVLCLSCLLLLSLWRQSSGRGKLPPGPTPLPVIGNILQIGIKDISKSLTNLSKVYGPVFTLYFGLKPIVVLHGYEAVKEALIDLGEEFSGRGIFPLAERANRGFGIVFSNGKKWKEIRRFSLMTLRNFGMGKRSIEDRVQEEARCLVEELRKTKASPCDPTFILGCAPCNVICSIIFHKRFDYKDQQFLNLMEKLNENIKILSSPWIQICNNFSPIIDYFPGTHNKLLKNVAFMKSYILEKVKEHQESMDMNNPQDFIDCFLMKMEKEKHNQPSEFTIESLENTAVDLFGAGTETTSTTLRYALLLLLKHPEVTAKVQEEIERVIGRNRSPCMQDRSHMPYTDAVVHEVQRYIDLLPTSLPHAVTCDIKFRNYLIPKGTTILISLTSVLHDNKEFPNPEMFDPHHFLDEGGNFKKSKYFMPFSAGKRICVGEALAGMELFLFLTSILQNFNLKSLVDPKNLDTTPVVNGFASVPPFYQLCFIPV
Cytochrome P450 2C19, sequence (P33261 whole entry): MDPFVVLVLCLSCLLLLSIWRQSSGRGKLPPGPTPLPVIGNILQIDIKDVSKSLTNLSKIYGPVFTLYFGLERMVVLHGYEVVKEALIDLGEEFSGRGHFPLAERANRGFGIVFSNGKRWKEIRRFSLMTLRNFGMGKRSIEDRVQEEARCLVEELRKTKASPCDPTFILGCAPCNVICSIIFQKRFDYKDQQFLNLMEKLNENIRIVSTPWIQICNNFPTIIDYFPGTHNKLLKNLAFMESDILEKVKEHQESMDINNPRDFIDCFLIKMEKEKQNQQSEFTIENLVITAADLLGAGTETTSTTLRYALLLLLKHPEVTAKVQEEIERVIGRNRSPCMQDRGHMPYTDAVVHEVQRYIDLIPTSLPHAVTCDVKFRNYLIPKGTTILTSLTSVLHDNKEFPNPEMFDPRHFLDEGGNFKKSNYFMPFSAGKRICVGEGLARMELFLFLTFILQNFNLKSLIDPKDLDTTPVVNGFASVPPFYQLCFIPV
Fatty acid synthase, sequence (P49327 whole entry, the tested form may be a part): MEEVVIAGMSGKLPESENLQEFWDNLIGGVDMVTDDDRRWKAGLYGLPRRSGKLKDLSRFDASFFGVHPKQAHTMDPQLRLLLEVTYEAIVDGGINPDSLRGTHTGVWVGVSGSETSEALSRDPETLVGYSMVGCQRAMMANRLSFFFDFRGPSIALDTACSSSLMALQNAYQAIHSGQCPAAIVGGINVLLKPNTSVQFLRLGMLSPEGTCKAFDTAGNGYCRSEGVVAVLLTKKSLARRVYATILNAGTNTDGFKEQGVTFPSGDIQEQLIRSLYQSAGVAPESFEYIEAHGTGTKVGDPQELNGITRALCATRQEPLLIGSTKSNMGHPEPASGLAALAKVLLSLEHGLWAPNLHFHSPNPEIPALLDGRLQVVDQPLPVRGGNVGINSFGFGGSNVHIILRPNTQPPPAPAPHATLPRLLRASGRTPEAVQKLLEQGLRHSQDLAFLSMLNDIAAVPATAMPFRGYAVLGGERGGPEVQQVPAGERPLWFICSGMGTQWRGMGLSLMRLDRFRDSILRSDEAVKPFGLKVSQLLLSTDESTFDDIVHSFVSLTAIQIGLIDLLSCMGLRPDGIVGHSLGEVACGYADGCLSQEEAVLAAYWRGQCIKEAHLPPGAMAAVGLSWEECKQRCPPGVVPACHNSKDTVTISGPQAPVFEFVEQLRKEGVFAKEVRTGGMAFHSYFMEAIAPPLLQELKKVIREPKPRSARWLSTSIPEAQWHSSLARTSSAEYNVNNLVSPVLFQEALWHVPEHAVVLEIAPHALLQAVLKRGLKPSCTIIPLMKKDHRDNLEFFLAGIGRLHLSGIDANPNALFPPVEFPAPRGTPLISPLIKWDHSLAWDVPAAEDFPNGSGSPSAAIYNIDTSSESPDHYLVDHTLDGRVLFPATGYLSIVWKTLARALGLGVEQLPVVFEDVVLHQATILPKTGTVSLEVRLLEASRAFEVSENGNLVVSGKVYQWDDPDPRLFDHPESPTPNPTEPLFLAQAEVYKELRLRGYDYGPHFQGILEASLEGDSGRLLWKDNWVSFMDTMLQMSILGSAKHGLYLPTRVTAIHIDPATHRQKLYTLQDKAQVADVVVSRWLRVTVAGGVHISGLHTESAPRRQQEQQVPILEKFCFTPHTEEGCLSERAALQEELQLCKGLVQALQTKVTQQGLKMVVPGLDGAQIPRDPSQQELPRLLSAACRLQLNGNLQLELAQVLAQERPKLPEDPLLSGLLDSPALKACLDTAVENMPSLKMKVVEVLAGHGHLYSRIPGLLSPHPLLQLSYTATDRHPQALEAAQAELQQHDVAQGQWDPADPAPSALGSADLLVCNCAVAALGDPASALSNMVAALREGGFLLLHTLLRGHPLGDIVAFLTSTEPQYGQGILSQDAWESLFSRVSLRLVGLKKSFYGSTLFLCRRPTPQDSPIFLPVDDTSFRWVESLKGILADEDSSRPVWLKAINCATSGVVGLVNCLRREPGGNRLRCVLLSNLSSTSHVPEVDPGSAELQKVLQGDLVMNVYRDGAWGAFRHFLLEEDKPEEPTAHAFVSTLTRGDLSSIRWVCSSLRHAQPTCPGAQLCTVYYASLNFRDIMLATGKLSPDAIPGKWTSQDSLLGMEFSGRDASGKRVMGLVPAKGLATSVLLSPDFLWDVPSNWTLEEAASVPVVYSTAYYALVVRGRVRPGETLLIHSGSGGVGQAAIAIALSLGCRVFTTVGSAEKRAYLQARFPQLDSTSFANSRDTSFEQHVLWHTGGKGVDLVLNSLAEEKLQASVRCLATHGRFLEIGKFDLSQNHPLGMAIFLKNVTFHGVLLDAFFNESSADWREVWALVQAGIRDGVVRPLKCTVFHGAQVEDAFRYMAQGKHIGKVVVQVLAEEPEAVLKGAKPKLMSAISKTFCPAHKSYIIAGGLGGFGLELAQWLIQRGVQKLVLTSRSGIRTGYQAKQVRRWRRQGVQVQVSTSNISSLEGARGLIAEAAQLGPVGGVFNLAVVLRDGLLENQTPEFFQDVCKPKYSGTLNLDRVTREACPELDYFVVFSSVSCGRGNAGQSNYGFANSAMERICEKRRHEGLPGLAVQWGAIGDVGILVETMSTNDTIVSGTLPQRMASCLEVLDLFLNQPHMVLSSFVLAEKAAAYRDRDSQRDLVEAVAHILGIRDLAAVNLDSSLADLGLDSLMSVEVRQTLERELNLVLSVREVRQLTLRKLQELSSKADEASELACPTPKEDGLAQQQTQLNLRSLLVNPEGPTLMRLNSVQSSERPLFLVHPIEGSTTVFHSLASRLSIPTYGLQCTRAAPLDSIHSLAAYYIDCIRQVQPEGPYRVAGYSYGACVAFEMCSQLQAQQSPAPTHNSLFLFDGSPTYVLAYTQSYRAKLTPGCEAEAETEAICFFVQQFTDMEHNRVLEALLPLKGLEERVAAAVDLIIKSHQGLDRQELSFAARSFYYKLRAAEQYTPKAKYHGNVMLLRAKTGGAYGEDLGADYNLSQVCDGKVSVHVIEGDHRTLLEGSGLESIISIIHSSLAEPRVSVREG

Structure (SMILES): Oc1nc(NCc2ccccc2)nc2c1CCCC2
- IC50 (H9c2): 52.3 µM (inactive)

Structure (SMILES): CC1CCN(c2nc3nonc3nc2Nc2ccc(F)cc2)CC1
- IC50 [1]: 11.7 µM (not active)

Structure (SMILES): CN(C)S(=O)(=O)c1ccc(Cl)c(NC(=O)CSc2nc3ccccc3c(=O)n2CCCN2CCOCC2)c1
- EC50 [2]: > 112 µM (not active)
- EC50 [3]: 17.8 µM (active)

Structure (SMILES): N#Cc1cccc(-c2nc3cnc(Nc4ccccc4)nc3n(C[C@H]3CCCO3)c2=O)c1
- AC50 (Cytochrome P450 2D6): 1 µM (inconclusive)
- AC50 (Cytochrome P450 1A2): 2 µM (inconclusive)
- AC50 (Cytochrome P450 2C9): 10 µM (inconclusive)

Structure (SMILES): CC(/C=C/c1ccc(Cl)o1)=C\C(=O)O
- EC50 [2]: > 112 µM (not active)
- EC50 [3]: > 112 µM (not active)

Structure (SMILES): N#Cc1cccc(-c2ccc([C@@H]3[C@@H]4CN(C(=O)C5CCC5)C[C@H]3N4)cc2)c1
- AC50 [4]: 3.71 µM (active)

Structure (SMILES): Cc1cnc(C(=O)OCC(=O)Nc2ccc(Cl)cc2Cl)cn1
- EC50 [2]: > 112 µM (not active)
- EC50 [3]: 14.8 µM (active)

Structure (SMILES): CCCCNC(=S)N(C)/N=C/c1ccc2c(c1)OCO2
- CC50 [5]: > 40 µM (active)
- AC50 [6]: 2.04 µM (active)

Structure (SMILES): CC(C)NC(=O)N1[C@H](C#N)[C@H](c2ccccc2-c2ccc(F)cc2)[C@@H]1CO
- AC50 [4]: 3.57 µM (active)

Structure (SMILES): CCc1c(C2(O)CCCCC2)[nH]c2ccc(C(F)(F)F)cc12
- EC50 [7]: 60.5 µM (active)
- EC50 [8]: > 120 µM (not active)
- EC50 [9]: 8.44 µM (active)
- CC50 [5]: 27.1 µM (active)
- AC50 [6]: 2.64 µM (active)

Structure (SMILES): CCCc1nc2oc(C(=O)OCC)c(N)c2c2c1COC(C)(C)C2
- CC50 [5]: > 40 µM (active)

Structure (SMILES): Oc1ccccc1C1=NN(c2ccccc2)C(c2ccccc2)C1 (configuration not stated)
- EC50 [10]: 4.06 µM (active)
- EC50 (Streptococcus): 6.93 µM (active)
- AC50 [6]: 1.29 µM (active)
- AC50 [11]: 4.3 µM (active)

Structure (SMILES): Cc1ccc(-c2noc(CCC(=O)Nc3ccccc3N3CCN(C)CC3)n2)cc1
- IC50 [12]: > 20 µM (inactive)

Structure (SMILES): O=C(COC(=O)Cc1nnc(O)c2ccccc12)Nc1ccc(Cl)cn1
- IC50 (H9c2): > 79 µM (inactive)

Structure (SMILES): Cc1ccc(S(=O)(=O)N(C)c2ccc(C)c([N+](=O)[O-])c2)cc1
- IC50 [1]: 18.8 µM (not active)
- EC50 [13]: > 260 µM (inactive)

Structure (SMILES): COc1ccccc1N(C)S(=O)(=O)c1ccc(C(=O)Nc2ccc3nc(C)sc3c2)cc1
- CC50 [5]: 38.1 µM (active)

Structure (SMILES): Cc1ccc(C2SCCN2C(=O)c2ccc([N+](=O)[O-])cc2)cc1 (configuration not stated)
- EC50 [2]: > 112 µM (not active)
- EC50 [3]: > 112 µM (not active)

Structure (SMILES): CSCCC(NC(=O)c1ccccc1Cl)C(=O)NNC(=O)c1csc(N2CCOCC2)n1 (configuration not stated)
- IC50 [12]: > 20 µM (inactive)

Structure (SMILES): Cc1c(CCC(=O)NCCCn2ccnc2)c(=O)oc2c(C)c3occ(C(C)(C)C)c3cc12
- CC50 [5]: 22.1 µM (active)

Structure (SMILES): CCOC(=O)c1ccc(/N=C2/S/C(=C\c3cc(C)n(-c4cccnc4)c3C)C(=O)N2C)cc1
- CC50 [5]: > 40 µM (active)

Structure (SMILES): CCOC(=O)C1CCN(C(c2cc3c(C)ccc(C)c3nc2O)c2nnnn2C2CCCCC2)CC1 (configuration not stated)
- IC50 (H9c2): > 79 µM (inactive)

Structure (SMILES): CC(C)n1nc(C(=O)OCC(=O)c2c[nH]c3ccccc23)c2ccccc2c1=O
- IC50 [1]: 0.91 µM (not active)
- IC50 (H9c2): 27.3 µM (active)

Structure (SMILES): O=C(Nc1ccccc1)c1nc[nH]c1C(=O)NCCCCNC(=O)c1nc[nH]c1C(=O)Nc1ccccc1
- IC50 (H9c2): > 79 µM (inactive)

Structure (SMILES): COc1ccc(/N=C/c2cc(Cc3ccccc3Cl)cc([N+](=O)[O-])c2O)cc1OC
- AC50 [11]: 1.6 µM (active)

Structure (SMILES): Cc1cc(C(=O)N/N=C/c2c(CO)cnc(C)c2O)c2ccccc2n1
- IC50 (H9c2): > 79 µM (inactive)

Structure (SMILES): NC(=O)c1cccc(Nc2nc(C(N)COCc3ccccc3)cs2)n1 (configuration not stated)
- IC50 (H9c2): 19.8 µM (active)

Structure (SMILES): Cc1ccc(C(C(=O)NCC2CCCO2)N(C(=O)c2snc(C(N)=O)c2N)c2ccc(C)c(C)c2)o1 (configuration not stated)
- IC50 [12]: > 20 µM (inactive)

Structure (SMILES): O=C(NCC1CCCO1)c1cc([N+](=O)[O-])ccc1N1CCC(Cc2ccccc2)CC1 (configuration not stated)
- AC50 [11]: 4.28 µM (active)

Structure (SMILES): O=[N+]([O-])c1cc(-n2cnnn2)ccc1N1CCC(Cc2ccccc2)CC1
- AC50 [11]: 4.38 µM (active)

Structure (SMILES): FC(F)(F)c1nnc2ccc(NCc3ccccc3)nn12
- IC50 [1]: 2.23 µM (active)

Structure (SMILES): CN(C(=O)Nc1ccc(Cl)cc1Cl)[C@H]1c2cc(Br)ccc2OC[C@H]1CO
- IC50 (Fatty acid synthase): 11.3 µM (active)

Structure (SMILES): CC(C)C(=O)Nc1ncc(Cc2ccc(Cl)cc2)s1
- IC50 [1]: 5.63 µM (not active)

Structure (SMILES): C#CCNC(=O)C1=C[C@H](c2cn(C(C)=O)c3ccccc23)C[C@H](OCc2ccc(CO)cc2)O1
- IC50 [12]: > 20 µM (inactive)

Structure (SMILES): CCCC#Cc1ccc(CC[C@H]2O[C@H]3CC[C@H](CO)O[C@H]3C[C@@H]2n2cc(C(C)(C)O)nn2)cc1
- AC50 [4]: 16.8 µM (active)

Structure (SMILES): C[C@H]1CN([C@@H](C)CO)C(=O)c2c(c3ccccc3n2C)-c2ccccc2CO[C@@H]1CN(C)Cc1cccc(O)c1
- AC50 [4]: 3.24 µM (active)

Structure (SMILES): O=C(CCc1nc(O)c2ccccc2n1)NNC(=O)COc1cccc(F)c1
- IC50 (H9c2): > 79 µM (inactive)

Structure (SMILES): COC(=O)[C@@]1(Cc2ccccc2)[C@H]2c3cc(C(=O)N4CCCC4)n(CCN4CNCC4=O)c3C[C@H]2CN1C(=O)c1ccccc1
- AC50 (Cytochrome P450 2C19): 39.8 µM (inconclusive)
- AC50 (Cytochrome P450 2D6): 39.8 µM (inconclusive)
- AC50 (Cytochrome P450 1A2): 25.1 µM (inconclusive)
- AC50 (Cytochrome P450 3A4): 1.58 µM (inconclusive)

Structure (SMILES): C[C@@H]1CN([C@@H](C)CO)C(=O)c2c(c3ccccc3n2C)-c2ccccc2CO[C@H]1CN(C)Cc1cccc(C(=O)Nc2ccccc2N)c1
- AC50 [4]: 2.81 µM (active)
